Test results from article PMC4926109, “Pharmacological targeting of glucose-6-phosphate dehydrogenase in human erythrocytes by Bay 11–7082, parthenolide and dimethyl fumarate” (Scientific Reports, 2016).
Structures can show the parent of a compound that is named as a salt. Where two headings read alike, the source gives them in different places.

What was measured:
Trypanosoma brucei = test: In vitro growth inhibition of parasite culture (own unpublished data); type: cell-based; details: preliminary work
[1] = tested on: GSH in mature human erythrocytes; test: Intracellular GSH measurement by HPLC (GS-NEM conjugate); type: cell-based; details: for GSH depletion / GSH: 24 h; for GSH: 0.6% Hct, DMSO control 7.52; for IC50: 24 h in Ringer solution, 0.6% Hct (mean GSH 15 μM), read-out: IC50 (GSH depletion)
Experimental: (§1) DMSO-treated erythrocytes served as negative controls. After incubation, erythrocytes were treated with 0.6 mM (final concentration) NEM prepared as a 310 mM stock in H2O. NEM functioned as the best alkylating agent for GSH conjugation to prevent sample manipulation-induced oxidation of GSH. After a 2-min incubation at room temperature, samples were centrifuged at 210 g for 10 min in order to obtain RBC pellets. These were immediately stored at −20 °C until GSH and GSSG analyses were performed. All measurements were carried out within one week after the treatment. GSH and GSSG were measured in the clear supernatant obtained by treatment of 0.1 ml RBCs with 0.12 ml 15% (w/v) trichloroacetic acid. GSH analysis was carried out by high-performance liquid chromatography (HPLC), as recently reported. […] GSSG was measured photometrically by the GSH recycling method with slight modifications. For hemoglobin determination, one aliquot of the RBC suspensions (10 μl) was hemolysed by 1:200 dilution with H2O[62]. The HPLC analyses were carried out with an Agilent series 1100 instrument (Agilent Technologies, Milan, Italy). The photometric analyses were performed with a Jasco V-530 instrument (Jasco Europe s.r.l. Cremella, Como, Italy).

[2] = tested on: mature human erythrocytes; test: MCV and MCHC of inhibitor-treated erythrocytes (ADVIA 120 Hematology System); type: cell-based; details: Hct 0.6%
Experimental: Erythrocyte concentrates (0.6% Hct), suspended in 30 ml Ringer solution were treated with Bay 11–7082 (20 μM), parthenolide (50 μM) and DMF (140 μM) for 24 h, respectively. DMSO (0.2% (v/v))-treated erythrocytes served as negative controls. After incubation, samples were centrifuged at 210 g for 10 min at room temperature in order to obtain RBC pellets. Ionomycin (0.25 μM)-treated erythrocytes served as positive controls, and were first incubated in Ringer solution in the absence of ionomycin for 21.5 h. Subsequently, the cells were treated with ionomycin for 2.5 h, and the MCV and MCHC values were determined. The MCV and MCHC analysis was carried out with an ADVIA 120 Hematology System Instrument (Siemens, Germany).

human erythrocytes [3] = test: Eryptosis: Annexin V binding to phosphatidylserine, flow cytometry; type: cell-based; details: increasing concentrations, same donors, 24 h and 48 h
Experimental: (§2) After incubation, 2·10^6 RBCs were washed in 500 μl Annexin-binding buffer. RBC pellets were then vortexed gently to get a homogenous cell suspension. To detect phosphatidylserine (PS) on the outer leaflet of the plasma membrane, these cells were subsequently stained with 32 μl Annexin V-FLUOS at a 1:33 dilution and mixed gently on a vortex mixer. After 20 min incubation in the dark at room temperature, 200 μl of Annexin-binding buffer was added to each sample, thoroughly vortexed to achieve single cell suspensions, and analysed by flow cytometry on a FACS-Calibur (Becton Dickinson, Heidelberg, Germany). Cell volume was determined by forward scatter (FSC), and Annexin V-FLUOS binding was measured in the FL1-channel.

human erythrocytes [4] = details: 20 µM
Experimental: (§4) RBC concentrates (0.4% Hct) were treated with varying concentrations of Bay 11–7082, parthenolide or DMF for 24 h or 48 h, then hemolysis was determined. Briefly, after incubation, 600 μl suspension containing 1.2·10^7 RBCs were centrifuged for 4 min at 420 g, 4 °C, and the supernatants were harvested. To quantify hemolysis, the hemoglobin concentration of the supernatant was determined photometrically at 405 nm. The absorption of the supernatant of RBCs lysed in distilled water was defined as 100% hemolysis.

[5] = target: T1, glucose-6-phosphate dehydrogenase (G6PDH) (Homo sapiens, UniProt P11413); test: G6PDH activity in lysates of inhibitor-treated erythrocytes; type: cell-based; details: for EC100 (inhibition of G6PDH activity) / EC50: erythrocytes treated 24 h, 0.6% Hct; for EC50: read-out: EC50 (inhibition of G6PDH activity)
T1 construct: endogenous in cells; host or cells: human erythrocytes (RBC concentrates), treated 24 h, then lysed
Experimental: (§3) DMSO-treated erythrocytes served as negative controls. Determinations of the enzymatic activities of G6PDH, 6PGDH and GR (+/− FAD) were performed in leukocytes- and platelets-free erythrocyte lysates according to standard biochemical procedures. After 10 min incubation (20 min for GR) at 37 °C the reaction was started by adding substrate or co-factor. Changes in absorbance at 340 nm were recorded at 1 min intervals for 20 min (Infinite 200 Nanoquant spectrophotometer; Tecan, Männedorf, Switzerland). Specific activity of all enzymes was expressed as U/g Hb. The combined activity of G6PDH and 6PGDH was determined by estimating the conversion of NADP^+ to NADPH in the presence of glucose-6-phosphate (600 μM). The activity of 6PGDH alone was then measured by the conversion of NADP^+ to NADPH in the presence of 6-phosphogluconate (600 μM). Finally, G6PDH activity was calculated by subtracting 6PGDH activity from total dehydrogenase activity.

[6] = target: T2, glutathione reductase (GR) (Homo sapiens, UniProt P00390); test: GR activity (+/- FAD) in lysates of inhibitor-treated erythrocytes; type: cell-based
T2 construct: endogenous in cells; host or cells: human erythrocytes (RBC concentrates), treated 24 h, then lysed
T2 sequence (P00390 1-479 isoform P00390-2): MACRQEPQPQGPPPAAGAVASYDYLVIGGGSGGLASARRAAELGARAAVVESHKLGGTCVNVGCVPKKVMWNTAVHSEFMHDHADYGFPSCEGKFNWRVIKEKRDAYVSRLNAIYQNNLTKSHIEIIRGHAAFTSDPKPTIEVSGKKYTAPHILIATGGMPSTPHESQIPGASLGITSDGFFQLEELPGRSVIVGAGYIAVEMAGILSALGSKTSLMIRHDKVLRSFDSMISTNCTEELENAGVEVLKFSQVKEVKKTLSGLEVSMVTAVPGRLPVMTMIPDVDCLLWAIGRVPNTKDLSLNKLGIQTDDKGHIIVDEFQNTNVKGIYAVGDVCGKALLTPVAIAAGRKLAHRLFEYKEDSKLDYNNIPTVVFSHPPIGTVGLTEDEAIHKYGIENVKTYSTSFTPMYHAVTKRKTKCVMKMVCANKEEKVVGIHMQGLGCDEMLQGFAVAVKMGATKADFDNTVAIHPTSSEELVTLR
Experimental: as §3

6PGDH = target: T3, 6PGDH (Homo sapiens, UniProt P52209); test: 6PGDH activity in lysates of inhibitor-treated erythrocytes; type: cell-based; details: at the concentrations used, data not shown
T3 construct: endogenous in cells; host or cells: human erythrocytes (RBC concentrates), treated 24 h, then lysed
T3 sequence (P52209 2-483 limits assumed): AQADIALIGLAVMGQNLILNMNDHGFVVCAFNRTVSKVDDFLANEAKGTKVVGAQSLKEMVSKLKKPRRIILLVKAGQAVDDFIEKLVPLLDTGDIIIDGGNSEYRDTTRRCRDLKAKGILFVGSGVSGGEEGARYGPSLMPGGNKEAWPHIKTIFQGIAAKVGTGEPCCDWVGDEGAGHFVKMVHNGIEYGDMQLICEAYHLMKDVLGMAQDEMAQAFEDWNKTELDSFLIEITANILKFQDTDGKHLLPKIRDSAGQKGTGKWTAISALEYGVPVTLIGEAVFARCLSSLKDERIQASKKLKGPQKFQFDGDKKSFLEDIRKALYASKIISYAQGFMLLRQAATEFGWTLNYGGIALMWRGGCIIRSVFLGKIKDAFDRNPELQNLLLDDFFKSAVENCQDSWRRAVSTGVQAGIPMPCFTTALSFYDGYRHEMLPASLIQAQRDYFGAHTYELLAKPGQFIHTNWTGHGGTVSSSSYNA
Experimental: as §3

[7] = tested on: mature human erythrocytes; test: Forward scatter (FSC, GeoMean) by flow cytometry, cell volume / cell shrinkage; type: cell-based; details: for GeoMean: Hct 0.6%; for decrease of cell volume (forward scatter): increasing concentrations, 24 h and 48 h, 0.4% Hct
Experimental: as §2

[8] = tested on: GSSG in mature human erythrocytes; test: Intracellular GSSG measurement, photometric GSH recycling method; type: cell-based; details: 24 h, 0.6% Hct, DMSO control 0.06
Experimental: as §1

human erythrocytes [9] = test: Hemolysis (hemoglobin in supernatant, 405 nm); details: 24 h / 48 h, compared with Bay 11–7082
Experimental: as §4

[10] = 20 μM, 24 h incubation, blood group A Rhesus +
[11] = 20 μM, 24 h incubation, blood group B Rhesus +
[12] = 20 μM, 24 h incubation, blood group O Rhesus +
[13] = 140 μM, 24 h incubation, blood group A Rhesus +
[14] = 140 μM, 24 h incubation, blood group B Rhesus +
[15] = 140 μM, 24 h incubation, blood group O Rhesus +
[16] = 0.25 μM, 2.5 h incubation (after 21.5 h in Ringer), positive control, blood group A Rhesus +
[17] = 0.25 μM, 2.5 h incubation (after 21.5 h in Ringer), positive control, blood group B Rhesus +
[18] = 0.25 μM, 2.5 h incubation (after 21.5 h in Ringer), positive control, blood group O Rhesus +
[19] = 50 μM, 24 h incubation, blood group A Rhesus +
[20] = 50 μM, 24 h incubation, blood group B Rhesus +
[21] = 50 μM, 24 h incubation, blood group O Rhesus +

T1 sequence (P11413 2-515 limits assumed): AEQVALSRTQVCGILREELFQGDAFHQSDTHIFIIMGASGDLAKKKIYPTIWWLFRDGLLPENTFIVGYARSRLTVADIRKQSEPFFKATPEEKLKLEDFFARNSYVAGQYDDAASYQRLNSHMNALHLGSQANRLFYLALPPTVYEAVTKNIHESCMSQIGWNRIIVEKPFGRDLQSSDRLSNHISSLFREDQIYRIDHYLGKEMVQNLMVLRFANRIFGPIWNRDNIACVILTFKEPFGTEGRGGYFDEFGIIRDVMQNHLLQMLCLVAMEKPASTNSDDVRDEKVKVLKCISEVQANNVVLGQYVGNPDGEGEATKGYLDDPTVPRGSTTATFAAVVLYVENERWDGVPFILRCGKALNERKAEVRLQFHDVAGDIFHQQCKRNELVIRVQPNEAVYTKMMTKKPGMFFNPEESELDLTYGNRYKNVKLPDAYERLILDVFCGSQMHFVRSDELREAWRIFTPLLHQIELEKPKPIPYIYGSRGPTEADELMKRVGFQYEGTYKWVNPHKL

## Cc1ccc(S(=O)(=O)/C=C/C#N)cc1 [Bay 11–7082]
Trypanosoma brucei
  in vitro growth inhibitory effect on parasites' culture: significant in vitro growth inhibitory effect
[1]; 20 μM final concentration
  GSH depletion: totally deplete GSH
[1]; 20 μM
  GSH: 0.00 nmol/mg Hb
[1]
  IC50: 7.6 µM
[2]; [10]
  MCHC: 33.9 g/dL
  MCV: 84.1 fL
[2]; [11]
  MCHC: 37 g/dL
  MCV: 78.5 fL
[2]; [12]
  MCHC: 34.1 g/dL
  MCV: 86.3 fL
Human erythrocytes [3]
  eryptosis (Annexin V binding), comparison of the three inhibitors: strongest effect
Human erythrocytes [4]
  hemolysis (share of total population): approx. 3%
[5]
  EC100 (inhibition of G6PDH activity): 20
  EC50: 10 µM
[6]; 20 μM, 24 h
  inhibition of GR activity: 100%
[6]; erythrocytes treated 24 h, 0.6% Hct
  EC100 (inhibition of GR activity): 20
[6]; erythrocytes treated 24 h, 0.6% Hct, read-out: EC50 (inhibition of GR activity)
  EC50: 10 µM
[6]; samples previously treated with 20 μM for 24 h
  GR activity after addition of exogenous FAD: did not demonstrate significantly increased GR activity in the presence of FAD
6PGDH
  inhibitory effect on 6PGDH activity: did not observe any inhibitory effect
[7]; [10]
  GeoMean: 422.4
[7]; [11]
  GeoMean: 339.3
[7]; [12]
  GeoMean: 410.7
[7]
  decrease of cell volume (forward scatter): marked decrease
[8]; 20 μM
  GSSG: 0.03 nmol/mg Hb

## COC(=O)/C=C/C(=O)OC [DMF, dimethyl fumarate]
Trypanosoma brucei
  in vitro growth inhibitory effect on parasites' culture: significant in vitro growth inhibitory effect
[1]; 140 μM
  GSH depletion: almost totally deplete GSH
  GSH: 0.17 nmol/mg Hb
[1]; Homo sapiens, Erythrocyte
  IC50: 20 µM
[2]; [13]
  MCHC: 33.3 g/dL
  MCV: 85.6 fL
[2]; [14]
  MCHC: 33.5 g/dL
  MCV: 83.5 fL
[2]; [15]
  MCHC: 32.9 g/dL
  MCV: 88.2 fL
Human erythrocytes [9]
  ratio of hemolysis to eryptosis: even lower as compared with Bay 11–7082
[5]; 140 μM, 24 h
  G6PDH inactivation: ~ 50%
[5]
  EC50: 140 µM
[6]; 140 μM, 24 h
  inhibition at 140 µM: 60%
6PGDH
  inhibitory effect on 6PGDH activity: did not observe any inhibitory effect
[7]; [13]
  GeoMean: 426.7
[7]; [14]
  GeoMean: 427.3
[7]; [15]
  GeoMean: 448
[7]
  decrease of cell volume (forward scatter): to a lesser extent
[8]; 140 μM
  GSSG: 0.03 nmol/mg Hb

## C[C@H](CCC(=O)O)C[C@H](C)C[C@H](C)C(=O)/C=C(\O)[C@H](C)C[C@H](C)C/C=C/[C@@H](C)[C@@H](O)[C@@H](C)[C@@H](O)C[C@@H]1CC[C@@](C)([C@H]2CC[C@@](C)([C@@H](C)O)O2)O1 [Ionomycin]
[2]; [16]
  MCHC: 53 g/dL
  MCV: 73.3 fL
[2]; [17]
  MCHC: 50.4 g/dL
  MCV: 72.2 fL
[2]; [18]
  MCHC: 55.7 g/dL
  MCV: 75.8 fL
[7]; [16]
  GeoMean: 209.3
[7]; [17]
  GeoMean: 166.2
[7]; [18]
  GeoMean: 186.3

## C=C1C(=O)O[C@H]2[C@H]1CC/C(C)=C/CC[C@@]1(C)O[C@@H]21 [Parthenolide, parthenolide]
Trypanosoma brucei
  in vitro growth inhibitory effect on parasites' culture: significant in vitro growth inhibitory effect
[1]; 50 μM
  GSH depletion: almost totally deplete GSH
  GSH: 0.30 nmol/mg Hb
[1]; Homo sapiens, Erythrocyte
  IC50: 10 µM
[2]; [19]
  MCHC: 33.5 g/dL
  MCV: 84.1 fL
[2]; [20]
  MCHC: 34.4 g/dL
  MCV: 82.2 fL
[2]; [21]
  MCHC: 33.8 g/dL
  MCV: 87 fL
Human erythrocytes [9]
  ratio of hemolysis to eryptosis: even lower as compared with Bay 11–7082
[5]; 50 μM, 24 h
  G6PDH inhibition: total G6PDH inhibition
  inhibition at 50 µM: 100%
[5]
  EC100 (inhibition of G6PDH activity): 50 µM
  EC50: 12 µM
[6]; parthenolide 1–50 μM, 24 h
  ability to inhibit GR activity: Unlike parthenolide, only Bay 11–7082 and DMF were able to inhibit the GR activity
6PGDH
  inhibitory effect on 6PGDH activity: did not observe any inhibitory effect
[7]; [19]
  GeoMean: 425.24
[7]; [20]
  GeoMean: 418.8
[7]; [21]
  GeoMean: 451.5
[7]
  decrease of cell volume (forward scatter): to a lesser extent
[8]; 50 μM
  GSSG: 0.03 nmol/mg Hb
